# In patent US4963553A, “4-[(substituted) alkylcarbonyl]-4,5-dihydro- and -4,5,6,7-tetrahydro-7-[(substituted)phenyl]pyrazolo[1,5-a]pyrimidines” (American Cyanamid Co., priority 1988, dated 1990):
# Structures can show the parent of a compound that is named as a salt.
# What was measured:
# [1] = system: mice (hypoxic environment); assay: Hypoxic survival test; assay type: in vivo, mouse (Royal Hart); details: intraperitoneal, 10% oxygen, 5 minutes
# In short: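 Groups of 20 Royal Hart mice (6 weeks old) dosed i.p. with compound in saline at 1–200 mg/kg, 30 minutes before exposure to 10% oxygen/90% carbon dioxide; survival scored after 5 minutes. Saline and physostigmine (0.125 mg/kg i.p.) groups run in parallel.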
# [2] = system: mice (tetrabenazine-induced depression); assay: Tetrabenazine-induced depression (antidepressant); assay type: in vivo, mouse; design: key: Active: A compound is considered active if 3 or more of 10 mice are protected against the tetrabenazine-induced effects; details: 25 mg/kg, oral, 10 mice
# Description: The compounds of the invention are useful as antidepressant agents in warm-blooded animals as verified in the following tests. First, the antidepressant properties of these compounds were tested by measuring their ability to counteract depression induced in animals by the administration of tetrabenazine methanesulfonate. Each test compound was administered orally to 10 mice at a dose of 25 mg/kg of body weight. Thirty minutes later, tetrabenazine methane sulfonate was administered intraperitoneally to each mouse at a dose of 39 mg/kg of body weight, which dose is known to depress markedly the exploratory behavior of normal mice. Thirty minutes later the mice were tested for their exploratory behavior as described by E. Greenblatt and A. C. Osterberg, Toxicology and Applied Pharmacology, 7. 566-578 (1965). A compound is considered active if 3 or more of 10 mice are protected against the tetrabenazine-induced effects.
# [3] = system: Spontaneously Hypertensive Rats; assay: Hypotensive activity: mean arterial blood pressure in spontaneously hypertensive rats; assay type: in vivo, rat (Okamoto strain, male); details: SHR, gavage, 100 mg/kg or less, two doses 24 h apart, measured at 28 hours; average MABP of rats used 160±1.5 mm; 100 mg/kg
# Description: The novel compounds of the invention are active hypotensive agents at nontoxic doses when administered to mammals. These compounds were tested for hypotensive activity by the method of P. S. Chan and D. W. Poorvin, Clinical and Experimental Hypertension, (6), 817-830 (1979). Male, 16 week old, spontaneously hypertensive rats of the Okamoto strain (Taconic Farms, Germantown, N.Y.) having an average means arterial blood pressure of 160±1.5 mm of mercury are used in the test. A rat is dosed by gavage with a test compound, suspended in 2% pre-boiled starch at a concentration of 50 mg/ml, at a dose of 100 mg/kg of body weight or less, with 0.9% sodium chloride loading at a dose of 25 ml/kg of body weight. A second identical dose of the test compound, without sodium chloride loading is given 24 hours later. At 28 hours after the initial dose the mean arterial blood pressure is measured by the method of Chan and Poorvin vide supra.
# [4] = system: Brain-Specific Receptors of Rats (3H-benzodiazepine binding); assay: Inhibition of the binding of 3H-benzodiazepine to brain-specific receptors of rats; design: species or system rat (Wistar strain, whole cortex); details: rat cortex P2 fraction, 3H-diazepam 1.5 nM or 3H-flunitrazepam 1.0 nM
# From the text: Another test utilized for the determination of anxiolytic activity is the measurement of the ability of a test compound to inhibit the binding of tritiated benzodiazepines to brain-specific receptors of mammals. A modification of the method described by R. F. Squires, et al., Nature, 266 (21), 732 (Apr., 1977) and H. Mohler, et al., Science, 198, 849 (1977) was employed. […] The test compounds were solubilized in dimethylformamide, acetic acid, ethanol or hydrochloric acid. […] (1) resuspended in twice the original volume in hypotonic 50 mM Tris.HCl (pH 7.4), or (2) resuspended in one-half the original volume in hypotonic 10 mM Tris.HCl (pH 7.4) and frozen (-20° C.) until time. of use. Frozen P2 preparations were thawed and resuspended in four times the original homogenizing volume at time of assay. […] Incubation for 30 minutes proceeded in ice and was terminated by filtration, under vacuum, through glass fiber filters. The filters were washed twice with 5 ml of ice-cold 50 mM Tris.HCl (pH 7.4) and placed in scintillation vials. After drying at 50°-60° C. for 30 minutes, 10 ml of diluent was added and the radioactivity determined in a scintillation counter. Inhibition of binding was calculated by the difference between total binding and binding in the presence of test compound, divided by the total binding, X 100.
# [5] = system: mice (anoxic induced amnesia); assay: Passive Avoidance Anoxic Induced Amnesia Test; assay type: in vivo, mouse (Swiss-Webster, middle-aged); details: intraperitoneal, vs saline control
# From the text: A useful in vivo test associated with decreased neural function in mammals is the Passive Avoidance Anoxic Induced Amnesia Test. This test is used to determine the attenuation of anoxic induced amnesia in mice treated with drug, as compared to saline treated control animals with no drug. A shock-motivated, single trial, step-through passive avoidance procedure is used. Groups of 25 Swiss-Webster, middle-aged mice (9 months of age) are placed singly in the front chamber of a 2-chamber box and are allowed to voluntarily cross into the rear chamber. As soon as the mouse enters the rear chamber, a door automatically traps the animal and a mild electric shock (0.4 mA for 4 seconds) is delivered to its feet. Following the foot shock, the mice are initially placed in an anoxic environment (0% oxygen) for 12 seconds, which quickly induces unconsciousness. […] All testing is performed 24 hours later, and in all cases the mice appear fully recovered from the previous anoxic/hypoxic treatment. […] Control animals are injected intraperitoneally only with saline at 0.01 ml/g of body weight. The latent period prior to entering the rear chamber is recorded for both training and testing sessions. The greater the memory of being shocked, the greater the reluctance to enter into the rear chamber and the higher will be the latent period prior to re-entry. […]
# rats = assay: Non-conditioned passive avoidance conflict procedure in rats (anxiolytic); assay type: in vivo, rat (Wistar strain, male); details: 25 mg/kg, oral, 60 minutes
# Description: A test used to assess antianxiety effects is the non-conditioned passive avoidance procedure described by J. R. Vogel, B. Beer and D. E. Clody, "A Simple and Reliable Conflict Procedure for Testing Antianxiety Agents", Psychopharmacologia, 21, 1-7 (1971). A conflict situation is induced in rats by a modification of this method.
# Groups of 8 naive, Wistar strain male rats (Royalhart Farms, New Hampton, N.J.), weighing 200-240 g each, were deprived of water for 48 hours. The test compounds were administered in single or graded, oral doses, suspended in 2% starch with 5% polyethylene glycol in distilled water and one drop of polysorbate 80. Control animals received the vehicle alone. At 60 minutes each rat was placed in an individual clear plastic chamber. Tap water was available ad libitum from a nipple located in a black box off the main chamber. A 0.7 milliampere AC shocking current was established between the stainless steel grid floor and the tap. After 20 licks of non-shocked drinking, a 2 second shocking current was administered to the rat. This ratio of 20 licks of non-shocked drinking followed by a 2 second shock was continued for a total of 3 minutes. The number of shocks taken by each rat during the 3 minute interval was recorded and compared to a control group. […]
Structure (SMILES),% Survivors ([1]; 100 mg/kg),"responders at 10 mg/kg ([1]; Mus musculus, ip, 5 min, 10 mg/kg, read-out: % Survivors)",Result (protection against tetrabenazine-induced depression) [2],MABP/mmHg (mean arterial blood pressure) [3],% Inhibition (3H-benzodiazepine binding) [4],% Improvement ([5]; 100 mg/kg),% Improvement ([5]; 200 mg/kg),Result (No. of shocks per 3 min.) (rats)
"N#Cc1cnn2c1N(C(=O)CN1CCN(Cc3ccccc3)CC1)CC=C2c1cccc(C(F)(F)F)c1 [Example 17, 4,5-Dihydro-4-[[4-(phenylmethyl)-1-piperazinyl]acetyl]-7-[3-(trifluoromethyl)phenyl]pyrazolo[1,5-a]pyrimidine-3-carbonitrile]",48%,40%,Active,120 mmHg,17%,65%,93%,
"N#Cc1cnn2c1N(C(=O)CN1CCN(CCC3CCCCC3)CC1)CC=C2c1cccc(C(F)(F)F)c1 [Example 41, 4-[[4-(2-Cyclohexylethyl)-1-piperazinyl]acetyl]-4,5-dihydro-7-[3-(trifluoromethyl)phenyl]pyrazolo[1,5-a]pyrimidine-3-carbonitrile]",,,,,,,,18.0 shocks per 3 min.
"CN1CCN(CC(=O)N2CC=C(c3cccc(C(F)(F)F)c3)n3ncc(C#N)c32)CC1 [Example 77, 4,5-Dihydro-4-[(4-methyl-1-piperazinyl)acetyl]-7-[3-(trifluoromethyl)phenyl]pyrazolo[1,5-a]-pyrimidine-3-carbonitrile. dihydrochloride]",,,,,,,,17.4 shocks per 3 min.
